Assay [1] has as its target T1, Receptor-interacting serine/threonine-protein kinase 1 (Homo sapiens, UniProt Q13546).
T1 sequence (Q13546 whole entry): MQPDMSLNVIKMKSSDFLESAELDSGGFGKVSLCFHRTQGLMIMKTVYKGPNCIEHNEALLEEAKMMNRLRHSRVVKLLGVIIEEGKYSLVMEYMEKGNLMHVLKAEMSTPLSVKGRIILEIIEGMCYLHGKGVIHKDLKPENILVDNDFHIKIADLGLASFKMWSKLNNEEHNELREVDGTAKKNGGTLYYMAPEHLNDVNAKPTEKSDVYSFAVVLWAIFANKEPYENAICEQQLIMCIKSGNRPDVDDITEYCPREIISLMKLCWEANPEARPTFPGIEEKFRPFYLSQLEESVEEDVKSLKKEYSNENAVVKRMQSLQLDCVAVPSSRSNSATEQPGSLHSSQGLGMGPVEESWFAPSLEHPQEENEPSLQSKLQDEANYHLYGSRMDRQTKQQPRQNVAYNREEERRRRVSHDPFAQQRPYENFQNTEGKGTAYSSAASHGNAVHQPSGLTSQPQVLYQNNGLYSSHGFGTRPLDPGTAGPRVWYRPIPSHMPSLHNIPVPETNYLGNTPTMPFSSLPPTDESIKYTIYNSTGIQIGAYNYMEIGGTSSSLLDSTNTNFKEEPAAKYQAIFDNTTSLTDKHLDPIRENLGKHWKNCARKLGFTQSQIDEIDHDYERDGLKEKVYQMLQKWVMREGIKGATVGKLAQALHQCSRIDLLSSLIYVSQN
Kind of assay: Inhibition of recombinant RIPK1 (1 to 327 residues) (unknown origin) expressed in Escherichia coli BL21([…]) using MBP as substrate preincubated for 15 mins followed by substrate and ATP addition and measured after 90 mins by ADP-Glo luminescence […] assay. On the technique in general: ADP-Glo first removes unused ATP, then detects ADP through luciferase.

Assay [2] has as its target Mitogen-activated protein kinase kinase kinase kinase 4 (Homo sapiens, UniProt O95819). Kind of assay: Inhibition of recombinant MAP4K4 (1 to 328 residues) (unknown origin) expressed in Escherichia coli BL21([…]) using MBP as substrate preincubated for 15 mins followed by substrate and ATP addition and measured after 90 mins by ADP-Glo luminescence […] assay.

The next assay concerns BV-2. Kind of assay: cells. As to conditions: Mus musculus.
The target in assay [3] is ALK tyrosine kinase receptor (Homo sapiens, UniProt Q9UM73). Kind of assay: Inhibition of recombinant ALK (1060 to end residues) (unknown origin) expressed in Escherichia coli […] using IGF1Rtide as substrate preincubated for 15 mins followed by substrate and ATP addition and measured after 90 mins by ADP-Glo luminescence […] assay.

Each structure is given as a SMILES string. Where only a bound is given, the exact number is not on record here.

ALK tyrosine kinase receptor, sequence (Q9UM73 whole entry): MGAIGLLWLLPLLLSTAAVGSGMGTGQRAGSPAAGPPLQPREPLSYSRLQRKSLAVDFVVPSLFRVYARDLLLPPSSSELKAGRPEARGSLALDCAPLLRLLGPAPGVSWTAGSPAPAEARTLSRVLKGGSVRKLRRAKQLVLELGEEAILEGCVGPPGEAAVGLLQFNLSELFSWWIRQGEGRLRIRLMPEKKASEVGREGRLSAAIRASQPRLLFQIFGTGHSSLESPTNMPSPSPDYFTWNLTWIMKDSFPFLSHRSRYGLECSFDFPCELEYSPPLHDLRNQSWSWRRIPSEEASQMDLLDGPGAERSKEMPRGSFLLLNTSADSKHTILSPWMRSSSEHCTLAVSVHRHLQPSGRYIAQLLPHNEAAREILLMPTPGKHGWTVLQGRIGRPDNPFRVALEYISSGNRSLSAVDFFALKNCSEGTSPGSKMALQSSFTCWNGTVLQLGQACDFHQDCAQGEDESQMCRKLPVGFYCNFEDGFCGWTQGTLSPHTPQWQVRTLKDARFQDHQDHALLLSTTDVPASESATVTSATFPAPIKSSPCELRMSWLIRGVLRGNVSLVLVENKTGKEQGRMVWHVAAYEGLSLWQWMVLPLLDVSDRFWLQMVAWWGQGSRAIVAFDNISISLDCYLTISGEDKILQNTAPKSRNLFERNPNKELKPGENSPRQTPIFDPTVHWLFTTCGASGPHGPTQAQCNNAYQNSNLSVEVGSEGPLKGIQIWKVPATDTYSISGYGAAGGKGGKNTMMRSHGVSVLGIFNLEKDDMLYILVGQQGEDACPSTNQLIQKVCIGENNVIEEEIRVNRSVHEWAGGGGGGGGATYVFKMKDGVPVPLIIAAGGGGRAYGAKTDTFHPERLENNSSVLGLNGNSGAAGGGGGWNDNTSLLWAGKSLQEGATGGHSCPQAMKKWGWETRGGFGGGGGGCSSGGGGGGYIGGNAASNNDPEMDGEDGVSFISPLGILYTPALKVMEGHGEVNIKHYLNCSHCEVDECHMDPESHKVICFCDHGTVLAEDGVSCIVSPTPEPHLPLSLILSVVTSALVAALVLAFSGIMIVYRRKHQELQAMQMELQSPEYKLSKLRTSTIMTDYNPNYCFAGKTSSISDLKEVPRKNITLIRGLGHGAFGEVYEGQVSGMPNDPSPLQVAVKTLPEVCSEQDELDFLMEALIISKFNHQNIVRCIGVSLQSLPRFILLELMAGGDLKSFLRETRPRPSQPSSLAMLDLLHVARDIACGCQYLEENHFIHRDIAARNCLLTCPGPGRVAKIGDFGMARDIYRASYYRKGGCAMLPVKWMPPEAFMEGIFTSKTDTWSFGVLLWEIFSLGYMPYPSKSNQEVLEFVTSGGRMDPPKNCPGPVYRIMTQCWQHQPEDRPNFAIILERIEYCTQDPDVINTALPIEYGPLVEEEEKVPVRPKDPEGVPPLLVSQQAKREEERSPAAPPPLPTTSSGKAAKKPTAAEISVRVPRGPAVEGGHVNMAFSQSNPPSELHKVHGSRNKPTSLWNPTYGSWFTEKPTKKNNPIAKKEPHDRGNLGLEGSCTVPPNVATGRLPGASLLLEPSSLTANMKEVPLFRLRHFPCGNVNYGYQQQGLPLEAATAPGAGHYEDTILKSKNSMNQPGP
Mitogen-activated protein kinase kinase kinase kinase 4, sequence (O95819 whole entry, the tested form may be a part): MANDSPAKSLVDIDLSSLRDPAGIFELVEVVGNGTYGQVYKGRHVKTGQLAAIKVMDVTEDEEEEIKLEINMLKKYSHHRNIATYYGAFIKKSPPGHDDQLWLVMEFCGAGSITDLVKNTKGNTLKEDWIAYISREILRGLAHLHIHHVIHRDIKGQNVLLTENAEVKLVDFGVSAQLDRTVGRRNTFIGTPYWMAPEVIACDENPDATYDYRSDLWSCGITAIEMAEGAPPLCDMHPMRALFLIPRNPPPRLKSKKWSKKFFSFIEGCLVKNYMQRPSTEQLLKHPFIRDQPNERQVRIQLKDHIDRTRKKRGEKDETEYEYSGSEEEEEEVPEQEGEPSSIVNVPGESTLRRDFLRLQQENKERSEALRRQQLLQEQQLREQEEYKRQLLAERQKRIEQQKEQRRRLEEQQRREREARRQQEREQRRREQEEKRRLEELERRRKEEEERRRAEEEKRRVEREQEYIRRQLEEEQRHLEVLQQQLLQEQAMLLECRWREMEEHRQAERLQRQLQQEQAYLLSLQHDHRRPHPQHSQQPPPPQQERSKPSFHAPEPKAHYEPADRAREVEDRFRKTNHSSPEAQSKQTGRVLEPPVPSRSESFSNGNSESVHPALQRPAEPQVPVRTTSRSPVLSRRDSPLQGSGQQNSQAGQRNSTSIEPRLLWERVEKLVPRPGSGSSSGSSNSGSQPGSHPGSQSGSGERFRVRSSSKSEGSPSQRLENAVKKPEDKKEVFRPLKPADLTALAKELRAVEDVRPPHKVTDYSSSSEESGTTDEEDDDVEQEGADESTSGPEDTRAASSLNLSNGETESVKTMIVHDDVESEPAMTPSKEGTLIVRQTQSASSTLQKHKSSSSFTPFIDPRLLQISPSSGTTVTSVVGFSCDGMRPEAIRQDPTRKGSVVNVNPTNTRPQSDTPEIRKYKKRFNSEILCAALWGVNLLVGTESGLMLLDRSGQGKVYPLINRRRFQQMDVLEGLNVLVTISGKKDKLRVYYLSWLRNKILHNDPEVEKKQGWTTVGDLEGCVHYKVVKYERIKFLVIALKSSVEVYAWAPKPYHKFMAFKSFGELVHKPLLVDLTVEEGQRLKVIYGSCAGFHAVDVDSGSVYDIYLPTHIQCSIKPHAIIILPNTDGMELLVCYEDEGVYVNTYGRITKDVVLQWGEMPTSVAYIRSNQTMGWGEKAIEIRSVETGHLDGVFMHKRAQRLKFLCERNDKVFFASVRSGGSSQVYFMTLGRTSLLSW
Description for BV-2: Anti-necroptosis activity in LPS/zVAD stimulated mouse BV-2 cells preincubated with LPS for 11 hrs followed by compound addition for 1 hr and exposed to zVAD-fmk for another 24 hrs by Cellcounting-Lite 2.0 luminescent cell viability assay

In the case of `Cc1cc(F)cc(Nc2ncc(Nc3ccc4c(c3)OCO4)cc2C(N)=O)c1`, the concentration for half-maximal inhibition (IC50) (usually the midpoint of a concentration-inhibition curve) came to 0.66 µM in assay [1] and 2.23 µM in assay [2]. Further, the EC50 (in general, the concentration giving half of the maximal effect) with BV-2 worked out at 0.16 µM.
For `COc1ccc(Nc2cnc(Nc3cc(C)cc(F)c3)c(C(N)=O)c2)cc1`, the half-maximal inhibitory concentration (IC50) is 0.3 µM in assay [1], 1.81 µM in assay [2] and 1.55 µM in assay [3]. Moreover, it took 0.14 µM to reach a half-maximal effect with BV-2 (EC50).
The matching figures for `Cc1cc(F)cc(Nc2ncccc2C(N)=O)c1`: 0.24 µM, 0.66 µM, 0.61 µM and 0.48 µM.
On to `Cc1cc(F)cc(Nc2ncc(Nc3ccc(C#N)cc3)cc2C(N)=O)c1`, for which the half-maximal inhibitory concentration (IC50) in assay [1] is 0.35 µM; in assay [2], 0.44 µM; in assay [3], 3.02 µM. The molecule further had an EC50 with BV-2 of 0.24 µM.
`CCCc1ccc(Nc2cnc(Nc3cc(C)cc(F)c3)c(C(N)=O)c2)cc1`: the IC50 is 1.48 µM in assay [1], 12.9 µM in assay [2] and 3.31 µM in assay [3]. Besides, the EC50 with BV-2 is above 3 µM.
In the case of `Cc1cc(F)cc(Nc2ncc(Nc3ccc(-c4ccco4)cc3)cc2C(N)=O)c1`, the results for the half-inhibitory concentration (IC50) in assay [1], in assay [2] and in assay [3] were 0.36 µM, 0.65 µM and 1.45 µM, respectively. This molecule also yielded a 50% effective concentration (EC50) in the assay with BV-2 of 0.12 µM.
Regarding `Cc1cc(F)cc(Nc2ncc(Nc3ccc4c(c3)CCCC4)cc2C(N)=O)c1`, the 50% inhibitory concentration (IC50) was determined as 0.69 µM in assay [1] and 2.26 µM in assay [2]. This molecule gave a 50% effective concentration (EC50) in the assay on BV-2 of 0.2 µM.
On to `Cc1cc(F)cc(Nc2ncc(Nc3ccc(Oc4ccccc4)cc3)cc2C(N)=O)c1`, for which the IC50 is 0.87 µM in assay [1], 4.29 µM in assay [2] and 3.79 µM in assay [3]. In the assay with BV-2, this molecule registered a 50% effective concentration (EC50) of 2.66 µM.
`Cc1cc(F)cc(Nc2ncc(Nc3ccc(C(C)(C)C)cc3)cc2C(N)=O)c1`: the figures for the IC50 in assay [1] and in assay [3] were 0.5 µM and 0.83 µM, respectively. This molecule had a half-maximal effective concentration (EC50) in the assay on BV-2 of 0.44 µM.
For `Cc1cc(F)cc(Nc2ncc(Nc3ccc(C)c(C)c3)cc2C(N)=O)c1`, the figures for the IC50 in assay [1], in assay [2] and in assay [3] were 1.57 µM, 1.38 µM and 1.05 µM, respectively. In the assay with BV-2, the 50% effective concentration (EC50) was above 3 µM.
In the case of `C=Cc1ccc(Nc2cnc(Nc3cc(C)cc(F)c3)c(C(N)=O)c2)cc1`, the 50% inhibitory concentration (IC50) in assay [1] was 0.48 µM; in assay [2], 0.35 µM. This molecule also came in with an EC50 in the assay on BV-2 of 0.14 µM.
As for `Cc1cc(F)cc(Nc2ncc(Nc3ccccc3C)cc2C(N)=O)c1`, the IC50 in assay [2] came to 0.97 µM. For the same molecule, the 50% effective concentration (EC50) in the assay on BV-2 is above 3 µM.
For `Cc1cc(C)cc(Nc2cnc(Nc3cc(C)cc(F)c3)c(C(N)=O)c2)c1`, the results for the 50% inhibitory concentration (IC50) in assay [1], in assay [2] and in assay [3] were 0.43 µM, 0.93 µM and 0.21 µM, respectively.
For `COc1ccc(Nc2cnc(Nc3cc(C)cc(F)c3)c(C(N)=O)c2)c(F)c1`, the IC50 came out at 0.96 µM in assay [1], 3.16 µM in assay [2] and 1.46 µM in assay [3]. Moreover, in the assay on BV-2, the response was half-maximal at 1.54 µM (EC50).
The corresponding values for `Cc1cc(F)cc(Nc2ncc(Nc3ccc(F)cc3F)cc2C(N)=O)c1` are 0.29 µM, 1.92 µM, 0.78 µM and 0.15 µM.
The matching figures for `Cc1cc(F)cc(Nc2ncc(Nc3ccc(C(F)(F)F)cc3)cc2C(N)=O)c1`: 0.42 µM, 1.42 µM, 3.78 µM and 0.21 µM.
For the molecule `COc1ccc(Nc2cnc(Nc3cc(C)cc(F)c3)c(C(N)=O)c2)c(C)c1`, the half-inhibitory concentration (IC50) in assay [2] was 9.26 µM. The same molecule returned an EC50 in the assay with BV-2 above 3 µM.
For the molecule `Cc1cc(F)cc(Nc2ncc(Nc3ccccc3Cl)cc2C(N)=O)c1`, the IC50 in assay [1] amounted to 1.3 µM; in assay [2], 0.76 µM; in assay [3], 0.49 µM. For the same molecule, the concentration for a half-maximal effect (EC50) in the assay on BV-2 was above 3 µM.
For the molecule `Cc1cc(F)cc(Nc2ncc(Nc3cccc(C#N)c3)cc2C(N)=O)c1`, the results for the IC50 in assay [1], in assay [2] and in assay [3] were 1.21 µM, 0.53 µM and 2.24 µM, respectively. In addition, the EC50 in the assay on BV-2 was above 3 µM.
As to `Cc1cc(F)cc(Nc2ncc(Nc3ccccc3)cc2C(N)=O)c1`, the IC50 in assay [1] was found to be 0.38 µM; in assay [2], 0.76 µM; in assay [3], 1.27 µM. In addition, a half-maximal response in the assay on BV-2 (EC50) required 0.37 µM.

The values above are taken from ChEMBL document CHEMBL6074641, “Polypharmacological Drug Design Guided by Integrating Phenotypic and Restricted Fragment Docking Strategies” (J Med Chem, 2024).
